Tests used:
[1] = target: MMP-9 (human leukocyte gelatinase) (Homo sapiens (Human), UniProt P14780); test: MMP-9 inhibition in vitro, octapeptide substrate, HPLC; type: biochemical; details: read-out: Maximum Inhibition At 100 μM compound (MMP-9)
Source text: In contrast all three chemically-modified curcumins at 100 μm final concentration inhibited gelatinase activity by 68-100% (FIG. 6 and Table 6).

caspase-3 activity = test: Doxorubicin mediated caspase-3 activity; type: cell-based, rat; details: 10 μM, doxorubicin 500 nM, any time point
Protocol: Neonatal rat ventricular myocytes, serum starved for 24 h, were treated with the inhibitors 1 h prior to the addition of 500 nM of doxorubicin (Sigma). At the indicated time points cells were washed with ice-cold phosphate buffered saline and lysed using RIPA buffer (Pierce) containing protease and phosphatase inhibitors (Sigma). Caspase-3 activity in the cell lysates was measured by incubation with 7-amino-4-trifluoromethyl coumarin (Enzo).

MMP-9 = MMP-9 (Rattus norvegicus (Rat), UniProt P50282); test: Diabetic rat, gingiva gelatinase by gelatin zymography (MMP-9); type: in vivo; details: diabetic rats, 100 and 500 mg/kg oral daily, 3 weeks
Protocol: (§1) At the end of the treatment protocol, the rats were sacrificed, blood samples were collected, and whole skin (except over limbs) and qingiva were dissected (the skin, because of ample quantities of tissue were analyzed for each rat separately; the gingiva, because of the tiny amounts that could be harvested per rat, were pooled for each experimental group, as prescribed previously for tetracycline studies (30). In addition, the jaw bones were collected, defleshed, and bone loss around the teeth analyzed morphometrically as described previously (42, 43).
This appearance of MMP-9 only in the gingiva (FIG. 10), but not the skin (FIG. 12), of the diabetic rats is likely the result of the oral bacteria inducing inflammation in the gingiva of these immune-suppressed UD rats, whereas the skin is not exposed to this onslaught of bacteria particularly the anaerobic gram-negative bacteria in the mouth that cause periodontal and gingival inflammation.

[2] = system: neonatal rat ventricular myocytes; test: Hydrogen peroxide induced LDH release; type: cell-based; details: 10 μM, H2O2 100 μM, 24 h
Protocol: Neonatal rat ventricular myocytes, serum starved for 24 h, were treated with the inhibitors 1 h prior to the addition of 100 μM of hydrogen peroxide (Sigma). LDH release in the conditioned media was quantified using CytoTox-ONE Homogeneous Membrane Integrity Assay reagent (Promega) at the indicated time points.

[3] = system: PC-3 human prostate cancer cells; test: MMP-9 in conditioned media of PC-3 cells, gelatin zymography and Western blot; type: cell-based; details: 10 μM and 20 μM, 48 hr, serum-free
Protocol: Compound 1 was evaluated in a cell culture model of cancer. […] After the incubation, aliquots of the conditioned media were assayed for MMP-9 (gelatinase B) by either of two techniques, gelatin zymography (in the presence of 2 or 10 mMCa^++) and Western blot (both assays used purified MMP-9, 92 kDa gelatinase, as a standard).

TNF-α = test: Inhibition of TNF-α production by LPS-stimulated monocytes; type: cell-based, human
Protocol: Briefly, human peripheral blood monocytes (HMs) were isolated from a leukocyte concentrate by density gradient centrifugation (Lymphoprep) and the isolated HMs cultured (2 h, 37° C.) to remove non-adherent cells. The adherent HMs wore cultured for 18 h (1×10^6 cells/well, 24-well plates)±endotoxin (LPS)±different compounds dissolved in DMSO (the final concentration of DMSO in the RPMI serum-free culture media with Pen./Strep. antibiotics was no greater than 0.5%). After incubation, the proinflammatory cytokines, TNFα, […], MCP-1 and IL-6 were measured in the conditioned media by ELISA and cytotoxicity was assessed by measuring the absorbance (490 nm) of formazan produced by reduction of MTS. The HMs alone±0.1-0.5% DMSO produced minimal levels of these pro-inflammatory cytokines. However, addition of 100 ng/ml or 10 μg/ml of LPS both dramatically stimulated cytokine production.
The cytokine levels were measured by Luminex multiplex, a method that allows the simultaneous measurement of different biological markers.

IL-1β = IL-1β (Rattus norvegicus (Rat), UniProt Q63264); test: Diabetic rat, IL-1β in gingiva extracts by ELISA; type: in vivo; details: 3 weeks
Protocol: as §1

Chain of MMP-9 (human leukocyte gelatinase) (P14780 94-707): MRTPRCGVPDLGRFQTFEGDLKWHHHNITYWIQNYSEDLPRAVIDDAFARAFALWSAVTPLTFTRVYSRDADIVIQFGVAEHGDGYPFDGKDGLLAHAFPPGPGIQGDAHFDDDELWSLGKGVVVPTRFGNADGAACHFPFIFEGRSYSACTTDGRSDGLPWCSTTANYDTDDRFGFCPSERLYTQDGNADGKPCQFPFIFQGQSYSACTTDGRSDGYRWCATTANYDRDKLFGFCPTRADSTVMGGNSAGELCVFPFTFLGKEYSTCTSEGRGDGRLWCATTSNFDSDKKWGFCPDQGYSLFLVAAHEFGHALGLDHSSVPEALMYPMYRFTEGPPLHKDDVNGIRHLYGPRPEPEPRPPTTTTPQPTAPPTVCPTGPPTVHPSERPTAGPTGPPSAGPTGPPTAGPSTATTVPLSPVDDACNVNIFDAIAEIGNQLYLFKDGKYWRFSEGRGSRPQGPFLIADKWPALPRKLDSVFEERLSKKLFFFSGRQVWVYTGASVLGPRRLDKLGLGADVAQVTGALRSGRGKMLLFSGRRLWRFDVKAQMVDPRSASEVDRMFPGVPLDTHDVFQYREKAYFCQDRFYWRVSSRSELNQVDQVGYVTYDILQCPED

inhibition at 100 µM [1]: 72% | MMP-9 level in gingiva (MMP-9): reduced MMP-9 to the undetectable levels | Reduction of IL-1β in gingiva vs untreated diabetic (IL-1β; higher oral dose (500 mg/kg)): 95% | Reduction of IL-1β in gingiva vs untreated diabetic (IL-1β; lower dose (100 mg/kg)): about 18%
SMILES: COC(=O)C(C(=O)/C=C/c1ccc(O)c(OC)c1)C(=O)/C=C/c1ccc(O)c(OC)c1 [Compound 1, 1,7-Bis(4-hydroxy-3-methoxyphenyl)-4-methoxycarbonylhepta-1E,6E-dien-3,5-dione]
Effect on doxorubicin mediated caspase-3 activity (caspase-3 activity): None of the MMP inhibitors, including compound 1, negatively modulate caspase-3 activity | LDH release [2]: less dramatic effect | MMP-9 production and/or activity in conditioned media [3]: inhibited the production and/or activity of MMP-9 | TNFα level in LPS-challenged human monocytes, Luminex multiplex (TNF-α; 2 μM, FIG. 2): potent in reducing | inhibition at 2 µM (TNF-α; Homo sapiens, Monocyte, 18 h, 2 uM, read-out: % Inhibition of TNF-α produced by stimulated Monocytes with LPS @ 18 h): 63% | inhibition at 25 µM (TNF-α; Homo sapiens, Monocyte, 18 h, 25 uM, read-out: % Inhibition of TNF-α produced by stimulated Monocytes with LPS @ 18 h): 100% | inhibition at 50 µM (TNF-α; Homo sapiens, Monocyte, 18 h, 50 uM, read-out: % Inhibition of TNF-α produced by stimulated Monocytes with LPS @ 18 h): 100%
